Test results: patent US20060211606A1, “Peptides” (priority 2005, published 2006)
*1 amine or outer side, *2 acyl side, *3 side chain or, on linkers, in order; H or OH if unused. [ ]: non-standard residue; d: D form. PEG (Jeffamine) = not defined here; Suc = O=C(CCC(=O)[*:2])[*:1]

Legend:
[1] = Stability to proteolytic cleavage in fresh human plasma, Western blotting; details: fresh human plasma plus PBS, 37° C., 24 hours
Experimental: Western blotting was then used to assess the survival of each peptide over those time intervals: A=0 minutes; B=30 minutes; C=2 hours; D=24 hours.
Stability may be assessed in terms of half-life in human plasma or by any other suitable technique. In particular, stability can be measured by assessing peptides' susceptibility to proteolytic cleavage in fresh human plasma according to the technique of Example 5.1 below, in which the plasma was stored until used at −70° C., 10 μg of peptide was added to 2 ml of plasma, plus 7 ml of PBS and the mixture was incubated at 37° C. for different time intervals. Western blotting was then used to detect each peptide over those time intervals.
The plasma was stored until used at −70° C. 10 μg of peptide were added to 2 ml of plasma, plus 7 ml of PBS. This mixture was incubated at 37° C. for different time intervals.
Like biological activity, stability was scored on a scale of 0 to 3.
Stability was determined as the amount of the peptide that remained intact and bound to the specific antibody in the following way:

[2] = system: tibialis anterior muscle of non-dystrophic mice; assay: Intramuscular injection into tibialis anterior of non-dystrophic mice, muscle strength; format: in vivo; details: i.m. twice weekly 25 μl containing 17 μg, within a few weeks
[3] = system: Human Skeletal Muscle Myoblasts (HSMM); assay: HSMM proliferation, BrdU incorporation; format: cell-based; details: 48 hours; A5 significant (P<0.1) at doses of 10 ng/ml and below; IGF-I alone 0.1, 10 and 100 ng/ml
Experimental: (A) Peptide A5: HSMM cells at 500 cells/well. Cultivation was carried out for 24 hours in 10% FCS, followed by two washes in serum free medium, stimulation for 48 hours and then treatment with BrdU for 5 hours. Concentrations of 0.1, 1, 10, 100 and 500 ng/ml of peptide A5 were tested, along with 0.1, 1, 10 and 100 ng/ml IGF-I. BrdU incorporation was measured to assess the level of cell proliferation achieved. Controls containing medium only, no cells (BLK), background staining (BG) and 10% FBS were also provided. Values on the Y-axis are for fluorescence (absorbence at 370 nm; mean plus standard error across 4 wells). The first five columns relate to peptide A5 at concentrations of 0.1, 1, 10, 100 and 500 ng/ml. The next column relates to the control containing medium only. The next three relate to IGF-I (See Example 1.5) alone at concentrations of 100, 10 and 0.1 ng/ml. The next three relate to controls containing 10% FBS, background staining and no cells respectively. * means P<0.05 compared to medium only control.
(§1) (B) Peptide AS: HSMM cells at 500 cells/well. […] Concentrations of 0.1, 1, 10, 100 and 500 ng/ml of peptide AS in combination with 2 ng/ml IGF-I were tested, along with 0.1, 1, 10 and 100 ng/ml IGF-I. BrdU incorporation was measured to assess the level of cell proliferation achieved. […] Values on the Y-axis are for fluorescence (absorbence at 370 nm; mean plus standard error across 4 wells). […]
as §1, with “(A)” for “(B)”, “AS” for “AS in combination with 2 ng/ml IGF-I”
(B) Peptide A5: HSMM cells at 500 cells/well. […] Concentrations of 0.1, 1, 10, 100 and 500 ng/ml of peptide AS in combination with 2 ng/ml IGF-I were tested, along with 0.1, 1, 10 and 100 ng/ml IGF-I. BrdU incorporation was measured to assess the level of cell proliferation achieved. […]

[4] = system: C2C12 muscle cells; assay: C2C12 proliferation, Alamar Blue assay; format: cell-based, mouse; details: 2000 cells per well; 2, 5, 50 and 100 ng/ml; medium with IGF-I 2 ng per ml; 36 hours
Experimental: (A) DMGF and CMGF Peptides: C2C12 Cells were provided at 2000 cell/well, in a medium containing DMEM (1000 mg/L glucose), plus BSA(100 ug/ml), plus IGF-I (2 ng per ml) and incubated for 36 hours. Cell proliferation was then assessed using an Alamar Blue assay. […] Y-axis values are fluorescence (wavelength of excitation 535 nm, measurement at 590 nm; mean plus standard error) in an Alamar Blue assay.
The 8 amino acid peptides described in 1.3.1 above and referred to in FIG. 8A as DMGF and CMGF were tested for the ability to induce proliferation of C2C12 muscle cells at a density of 2000 cells per well in a medium containing DMEM (1000 mg/L glucose), BSA (10 ug/ml) and IGF-I (2 ng per ml). Concentrations of 2, 5, 50 and 100 ng/ml of DMGF and CMGF were tested (See the left-hand and middle sets of results in FIG. 8), along with 2, 5, 50 and 100 ng/ml IGF-I alone (See the right-hand set of results in FIG. 8). After 36 hours incubation, an Alamar Blue assay was used to assess the level of cell proliferation achieved. A control containing only the medium was also provided.

With “stabilised peptide: SEQ ID NO: 15 with D-Arginine at positions 14 and 15, N-terminus attached to PEG (Jeffamine) via succinic acid bridge, amidated at C-terminus ({PEG (Jeffamine)-Suc}-YQPPSTNKNTKSQ[dR][dR]KGSTFEEHK-NH2; reading uncertain)” the “peptide detected by Western blotting after 24 hours” value [1] was “detected in abundance” and the “increase in muscle strength” value [2] was “more than 25%”.

With “IGF-I: IGF-I receptor binding domain encoded by Exons 3 and 4, common to all splice variants, approximately 70 amino acids [reference compound]” the “proliferation of HSMM (BrdU incorporation), used in isolation” value [3] was “no significant effect” and the “proliferation of C2C12 cells (Alamar Blue fluorescence)” value [4] was “statistically different to the control value”.
